Measured values: patent US20010014699A1, “Benflumetol derivatives, intermediates thereof and their use against parasitical protozoa and trematodes” (priority 1998, published 2001)
Where two headings read alike, the source gives them in different places.

Key:
[1] = test system: Plasmodium falciparum isolates; assay: WHO Standard Microtest, inhibition of schizont maturation in vitro; format: cell-based; conditions: for power ratio (PR) between benflumetol and the compound: Litchfield & Wilcoxon comparison; for efficacy compared with benflumetol (in words): Plasmodium falciparum in vitro; for inhibition at 0.003 µM: 3.0 nmol/l; for inhibition at 0.01 µM: 10.0 nmol/l; for inhibition at 0.03 µM: 30.0 nmol/l; for inhibition at 0.1 µM: 100.0 nmol/l; for inhibition at 0.3 µM: 300.0 nmol/l; for inhibition at 1 µM: 1000.0 nmol/l; for inhibition at 3 µM: 3000.0 nmol/l; for EC50: probit analysis, 95% confidence limits
Experimental: The study is carried out in Mae Sot, a province in north-west Thailand close to Myanmar. […] The test for efficacy is carried out with blood samples obtained by finger pricks (in accordance with the WHO Standard Microtest Method for studying the inhibition of schizont maturation, see Wemsdorfer, W. H., and Payne, D. (1988), Drug Sensitivity Tests. In: Wemsdorfer, W. H., and McGregor, I. A. (Editors), Malaria: Principles and practice of malariology; Churchill Livingstone, Edinburgh). The tests are carried out in parallel with benflumetol and the 2-alkylamino-1-[2,7-dichloro-9-(4-chlorobenzylidene]-9H-fluoren-4-yl)ethanols in concentrations between 3 and 3000 nmol/l in blood medium mixture (BMM) using materials from the WHO Standard Test Kit supplied by the WHO Regional Office for the Western Pacific, Manila, except for the predosed microtitre plates, which are prepared in the laboratory of the institute of Specific Prophylaxis and Tropical Medicine, University of Vienna, Austria.
The procedure for determining parasitaemia before incubation follows the WHO Standard Method (WHO (1991), Basic malaria microscopy. Part I; WHO, Geneva). The schizont titres are determined as described in Wemsdorfer and Payne (1988) (see above).
The statistical analysis of the data was carried out according to log-concentration/response probit analysis (Litchfield & Wilcoxon (1949), J. Exp. Pharmacol. 89, 99-113). This method is based on the least-squares procedure and is the most widely accepted method for the analysis of dose-response studies. A computer adaptation of the method (Wernsdorfer & Wernsdorfer, Mitteilungen der Österreichischen Gesellschaft für Tropenmedizin und Parasitologie 17, 221-228) is used for data processing.

[2] = cited from earlier work
[3] = taken with foods having a high fat content; cited from earlier work
[4] = cited from earlier work; remark: listed apart in the source
[5] = Plasmodium falciparum, 34-isolate test series (Examples 6.2 and 6.3)
[6] = Plasmodium falciparum, 34-isolate test series (Examples 6.2 and 6.3), read-out: EC50: mean value
[7] = Plasmodium falciparum, 58 isolates (Example 6.1)

Structure (SMILES)	concentration at which none of the isolates shows schizont maturation ([1]; 34 isolates)	power ratio (PR) between benflumetol and the compound ([1]; 34 isolates)	efficacy compared with benflumetol (in words) [1]	inhibition at 0.003 µM [1, 5] [%]	inhibition at 0.01 µM [1, 5] [%]	inhibition at 0.03 µM [1, 5] [%]	inhibition at 0.1 µM [1, 5] [%]	inhibition at 0.3 µM [1, 5] [%]	inhibition at 1 µM [1, 5] [%]	inhibition at 3 µM [1, 5] [%]	EC50 [1, 6] [nM]	isolates completely inhibited ([1]; at 100 nml/l, 34 isolates) [%]	also measured
CCCCCNCC(O)c1cc(Cl)cc2c1-c1ccc(Cl)cc1C2=Cc1ccc(Cl)cc1 (stereo not shown) [5c, 2-n-Pentylamino-1-[2,7-dichloro-9-(4-chlorobenzylidene)-9H-fluoren-4yl]ethanol]	3000 nmol/L	2.0724	about five times as effective as benflumetol	6.83	36.4	81.2	94.8	97	99.6	100	14.4	95	EC99 of the compound, times lower than that for benflumetol ([1]; 34 isolates): about 4 times
CO[C@H]1O[C@@H]2O[C@@]3(C)CC[C@H]4[C@H](C)CC[C@@H]([C@H]1C)[C@@]24OO3 [artemether, [3R-(3α, 5αβ, 6β, 8αβ, 9α, 10α, 12β,-12aR)]-decahydro-10-methoxy-3,6,9-trimethyl-3,12-epoxy-12H-pyrano[4,3-j]-1,2-benzodioxepin]													half-life ([2]; in plasma): 2 h
CCN(CC)CCCC(C)Nc1ccnc2cc(Cl)ccc12 (stereo not shown) [Chloroquine]													half-life (in words) ([2]; in vivo): very long half-life
CCCCN(CCCC)CC(O)c1cc(Cl)cc2c1-c1ccc(Cl)cc1C2=Cc1ccc(Cl)cc1 (stereo not shown) [benflumetol, 2-(di-n-butylamino)-1-[2,7-dichloro-9-(4-chlorobenzylidene)-9H-fluoren-4-yl]ethanol]	above 3000 nmol/l			7.16	18.4	42.8	90.7	96.2	99.9	100	28		plasma half-life ([2]; in patients): 96 to 140 h; absorption with foods having a high fat content, times higher than in the absence of such fatty foods [3]: up to 16 times; solubility (in words) [4]: not very good; concentration at which none of the isolates shows schizont maturation ([1]; 58 isolates): above 300 nmol/l; inhibition at 0.003 µM [1, 7]: 7.14%; inhibition at 0.01 µM [1, 7]: 20.4%; inhibition at 0.03 µM [1, 7]: 47.2%; inhibition at 0.1 µM [1, 7]: 90.7%; inhibition at 0.3 µM [1, 7]: 99.8%; inhibition at 1 µM [1, 7]: 100%; inhibition at 3 µM [1, 7]: 100%; EC50 ([1]; Plasmodium falciparum, read-out: EC50: mean value (50% inhibition versus controls not given active substance), 58 isolates (Example 6.1)): 24.4 nM; isolates completely inhibited ([1]; at 300 nmol/l, 34 isolates): 96%; isolates completely inhibited ([1]; at 300 nmol/l, 58 isolates): 97%; EC50 ([1]; read-out: EC50: mean value (50% inhibition versus controls not given active substance), 58 isolates (Example 6.1)): 24.4 nM
CNCC(O)c1cc(Cl)cc2c1-c1ccc(Cl)cc1C2=Cc1ccc(Cl)cc1 (stereo not shown) [5a, 2-Methylamino-1-[2,7-dichloro-9-(4-chlorobenzylidene)-9H-fluoren-4yl]ethanol]	1000 nmol/L	2.8898	about four times as effective as benflumetol	13.1	51.9	83.1	95.8	97.1	100	100	10.5	96	EC99 of the compound as fraction of that for benflumetol ([1]; 34 isolates): about one fifth
